pIC50: −log10 of the molar value.
Legend:
Assay type in all cases: biochemical
[1] = target: T1, dipeptidyl peptidase 1 (DPP1, cathepsin C) (Rattus norvegicus, UniProt P80067); assay: fluorogenic H-Gly-Arg-AMC cleavage assay with recombinant enzyme
T1 construct: gene Ctsc; recombinant rat DPP1, proteolytically processed into mature form with cathepsin L

[2] = target: T2, dipeptidyl peptidase 1 (DPP1, cathepsin C) (Canis lupus, UniProt O97578); assay: fluorogenic H-Gly-Arg-AMC cleavage assay in crude white blood cell lysate; conditions: read-out: DPP1 / Dog
T2 construct: gene CTSC; native DPP1 in dog white blood cell lysate
T2 sequence (O97578 1-109): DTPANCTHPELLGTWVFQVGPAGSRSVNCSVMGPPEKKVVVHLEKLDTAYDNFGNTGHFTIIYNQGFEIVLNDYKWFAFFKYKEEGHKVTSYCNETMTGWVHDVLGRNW
T2 sequence (O97578 200-435): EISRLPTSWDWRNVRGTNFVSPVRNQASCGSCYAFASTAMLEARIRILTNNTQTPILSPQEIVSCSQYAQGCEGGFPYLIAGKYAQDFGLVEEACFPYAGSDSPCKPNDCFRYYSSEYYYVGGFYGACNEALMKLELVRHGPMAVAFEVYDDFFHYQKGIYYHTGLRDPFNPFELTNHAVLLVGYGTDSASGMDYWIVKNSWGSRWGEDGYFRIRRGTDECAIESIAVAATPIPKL

[3] = target: T3, dipeptidyl peptidase 1 (DPP1, cathepsin C) (Mus musculus, UniProt P97821); assay: fluorogenic H-Gly-Arg-AMC cleavage assay with recombinant enzyme
T3 construct: gene Ctsc; recombinant mouse DPP1
T3 sequence (P97821 25-134): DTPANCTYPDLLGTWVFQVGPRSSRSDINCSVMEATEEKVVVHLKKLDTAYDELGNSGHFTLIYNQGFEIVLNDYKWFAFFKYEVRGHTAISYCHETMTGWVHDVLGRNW
T3 sequence (P97821 231-462): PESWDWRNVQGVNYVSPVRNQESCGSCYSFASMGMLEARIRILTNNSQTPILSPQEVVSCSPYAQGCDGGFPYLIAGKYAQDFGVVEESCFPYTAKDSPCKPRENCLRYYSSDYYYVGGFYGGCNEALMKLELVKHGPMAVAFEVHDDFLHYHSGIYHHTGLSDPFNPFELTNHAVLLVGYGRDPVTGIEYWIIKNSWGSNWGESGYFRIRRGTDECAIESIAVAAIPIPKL

T1 sequence (P80067 25-134): as the sequence (P97821 25-134) above, with S23H, S24P, D27H, A35P, V42I, L54V, H59Y, R86K, H88S, T89R counted along it
T1 sequence (P80067 230-393): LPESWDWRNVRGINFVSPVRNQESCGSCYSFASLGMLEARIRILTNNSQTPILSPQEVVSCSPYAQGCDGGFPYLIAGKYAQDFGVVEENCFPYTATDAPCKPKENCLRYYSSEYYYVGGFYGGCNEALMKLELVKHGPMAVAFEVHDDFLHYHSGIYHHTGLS
T1 sequence (P80067 394-462): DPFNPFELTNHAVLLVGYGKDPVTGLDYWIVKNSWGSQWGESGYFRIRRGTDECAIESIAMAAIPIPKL

SMILES: Cn1c(=O)oc2ccc(-c3ccc(C[C@@H](C#N)NC(=O)[C@@H]4CNCCCO4)cc3)cc21 [brensocatib]
- pIC50 [1]: 7.29
- pIC50 [2]: 7.42
- pIC50 [3]: 7.62
